Converted amounts (≈) assume the structure as drawn. “And” between values parts separate entries of the source, which are not always exact repeats. Equal entries are not always repeated. Where two headings read alike, the source gives them in different places.
Tests used:
[1] = system: MRSA; assay: Disk diffusion assay, zone of inhibition, MRSA; type: cell-based, Staphylococcus aureus
[2] = system: M. smegmatis (mc2155) Beta-Galactosidase (B-gal) reporter gene; assay: HTS screen with Beta-Galactosidase reporter gene in M. smegmatis; type: cell-based; conditions: Mycolicibacterium smegmatis
[3] = system: M. smegmatis Mc2155; assay: MIC against M. smegmatis Mc2155; type: cell-based; conditions: Mycolicibacterium smegmatis
[4] = system: MRSA; assay: MIC against MRSA; type: cell-based; conditions: Staphylococcus aureus
[5] = system: S. aureus ATCC 33591 (MRSA); assay: Broth dilution MIC, S. aureus ATCC 33591; type: cell-based; conditions: for MIC: Staphylococcus aureus
[6] = system: S. aureus BAA-39 (MDR); assay: Broth dilution MIC, S. aureus BAA-39; type: cell-based; conditions: for MIC: Staphylococcus aureus, BAA39
[7] = system: S. pneumoniae ATCC 6301 (PSSP); assay: Broth dilution MIC, S. pneumoniae ATCC 6301; type: cell-based; conditions: Streptococcus pneumoniae
[8] = system: S. pneumoniae ATCC 700674 (PRSP); assay: Broth dilution MIC, S. pneumoniae ATCC 700674; type: cell-based; conditions: Streptococcus pneumoniae
[9] = system: E. faecalis ATCC 29212 (VRE); assay: Broth dilution MIC, E. faecalis ATCC 29212; type: cell-based
[10] = system: E. faecium ATCC 700221 (VRE); assay: Broth dilution MIC, E. faecium ATCC 700221; type: cell-based
[11] = system: E. faecium CT-26; assay: Broth dilution MIC, E. faecium CT-26; type: cell-based; conditions: Enterococcus faecium
[12] = system: E. coli ATCC 25922; assay: Broth dilution MIC, E. coli ATCC 25922; type: cell-based; conditions: Escherichia coli
[13] = system: K. pneumoniae ATCC 13883; assay: Broth dilution MIC, K. pneumoniae ATCC 13883; type: cell-based; conditions: Klebsiella pneumoniae
[14] = system: P. aeruginosa ATCC 9027; assay: Broth dilution MIC, P. aeruginosa ATCC 9027; type: cell-based; conditions: Pseudomonas aeruginosa
[15] = system: S. aureus (MRSA) (ATCC33591); assay: Septicemia survival model in neutropenic CD1 mice, MRSA; type: in vivo
[16] = system: E. coli (ATCC 25922); assay: Septicemia survival model in neutropenic CD1 mice, E. coli; type: in vivo
[17] = system: Mycobacterium tuberculosis; assay: Time kill curve, liquid culture, M. tuberculosis; type: cell-based; conditions: 1.9 micromolar; vs DMSO control; FIG. 1 left-hand graph
Protocol: Either Mycobacterium tuberculosis or Mycobacterium smegmatis liquid cultures were incubated with SKI-1 (356313) at a concentration of 1.9 micromolar and viable bacterial titer was determined over the time period indicated by culturing serial dilutions on agar media. Control cultures were treated with an equivalent volume of DMSO.

[18] = system: S. pneumoniae (ATCC 6303); assay: Thigh infection model in neutropenic CD1 mice, S. pneumoniae; conditions: 24 hours; for Log reduction: vs vehicle

c1cc(C2=NCCN2)ccc1Nc1ccc(-c2cc3ccc(C4=NCCN4)cc3[nH]2)cc1 [SKI-1]
Average Zone Size MRSA [1]: 11 | Zone Size MRSA ([1]; disk diffusion zone of inhibition): 11 mm | IC50 ([2]; suffix 250 not explained, read-out: IC50_250): 0.79 µM | IC50 ([2]; suffix 251 not explained, read-out: IC50_251): 0.73 µM | IC50 ([2]; suffix 381 not explained, read-out: IC50_381): 2.54 µM | IC50 ([2]; suffix 569 not explained, read-out: IC50_569): 3.67 µM | MIC [3]: 0.2 µM (≈ 0.0841 µg/mL) | MIC [4]: 9.2 µM (≈ 3.87 µg/mL) | MIC ([5]; Table 1, range 64 down to 0.12 μg/ml, read-out: MIC S. aureus ATCC 33591): 0.25 µg/mL (≈ 0.595 µM) | MIC ([5]; Table 2, broth dilution MIC in ug/ml, read-out: MIC S aureus ATCC 33591 MRSA): 0.25 µg/mL (≈ 0.595 µM) | MIC ([5]; Table 4, broth dilution MIC according to CLSI standards (NAEJA), read-out: MIC MRSA S. aureus ATCC 33591): 0.12 µg/mL (≈ 0.285 µM) | MIC S. aureus ATCC 33591 ([5]; Table 3, starting at 4 μg/ml): 0.25 µg/mL (≈ 0.595 µM) | MIC ([6]; Table 1, range 64 down to 0.12 μg/ml, read-out: MIC S. aureus BAA-39): 0.25 µg/mL (≈ 0.595 µM) | MIC ([6]; Table 2, broth dilution MIC in ug/ml, read-out: MIC S aureus BAA-39 MDR): 0.25 µg/mL (≈ 0.595 µM) | MIC ([6]; Table 4, broth dilution MIC according to CLSI standards (NAEJA), read-out: MIC MDR S. aureus BAA-39): 0.25 µg/mL (≈ 0.595 µM) | MIC S. aureus BAA-39 ([6]; Table 3, starting at 4 μg/ml): 0.25 µg/mL (≈ 0.595 µM) | MIC ([7]; ATCC6301, Table 1, range 64 down to 0.12 μg/ml, read-out: MIC S. pneumoniae ATCC 6301): ≤ 0.12 µg/mL | MIC ([7]; ATCC6301, Table 2, broth dilution MIC in ug/ml, read-out: MIC S pneumonia ATCC 6301 PSSP): 0.12 µg/mL (≈ 0.285 µM) | MIC ([7]; ATCC6301, Table 3, starting at 4 μg/ml, read-out: MIC S. pneumoniae ATCC 6301): 0.12 µg/mL (≈ 0.285 µM) | MIC ([7]; ATCC6301, Table 4, broth dilution MIC according to CLSI standards (NAEJA), read-out: MIC PSSP S. pneumoniae ATCC 6301): 0.12 µg/mL (≈ 0.285 µM) | MIC ([8]; Table 1, range 64 down to 0.12 μg/ml, read-out: MIC S. pneumoniae ATCC 700674): ≤ 0.12 µg/mL | MIC ([8]; Table 2, broth dilution MIC in ug/ml, read-out: MIC S pneumonia ATCC 700674 PRSP): 0.12 µg/mL (≈ 0.285 µM) | MIC ([8]; Table 3, starting at 4 μg/ml, read-out: MIC S. pneumoniae ATCC 700674): 0.12 µg/mL (≈ 0.285 µM) | MIC ([8]; Table 4, broth dilution MIC according to CLSI standards (NAEJA), read-out: MIC PRSP S. pneumoniae ATCC 700674): 0.03 µg/mL (≈ 0.0713 µM) | MIC ([9]; Enterococcus faecalis, Table 1, range 64 down to 0.12 μg/ml, read-out: MIC E. faecalis ATCC 29212): 0.25 µg/mL (≈ 0.595 µM) | MIC ([9]; Enterococcus faecalis, Table 4, broth dilution MIC according to CLSI standards (NAEJA), read-out: MIC VRE E. faecalis ATCC 29212): 0.12 µg/mL (≈ 0.285 µM) | MIC ([9]; Table 2, broth dilution MIC in ug/ml, read-out: MIC E faecalis ATCC 29212 VRE): 0.25 µg/mL (≈ 0.595 µM) | MIC E. faecalis ATCC 29212 ([9]; Table 3, starting at 4 μg/ml): 0.25 µg/mL (≈ 0.595 µM) | MIC ([10]; Enterococcus faecium, Table 1, range 64 down to 0.12 μg/ml, read-out: MIC E. faecium ATCC 700221): ≤ 0.12 µg/mL | MIC ([10]; Enterococcus faecium, Table 3, starting at 4 μg/ml, read-out: MIC E. faecium ATCC 700221): 0.06 µg/mL (≈ 0.143 µM) | MIC ([10]; Enterococcus faecium, Table 4, broth dilution MIC according to CLSI standards (NAEJA), read-out: MIC VRE E. faecium ATCC 700221): 0.03 µg/mL (≈ 0.0713 µM) | MIC ([10]; Table 2, broth dilution MIC in ug/ml, read-out: MIC E faecium ATCC 700221 VRE): 0.06 µg/mL (≈ 0.143 µM) | MIC ([11]; CT26, Table 1, range 64 down to 0.12 μg/ml, read-out: MIC E. faecium CT-26): ≤ 0.12 µg/mL | MIC ([11]; CT26, Table 2, broth dilution MIC in ug/ml, read-out: MIC E faecium CT-25): 0.06 µg/mL (≈ 0.143 µM) | MIC ([11]; CT26, Table 3, starting at 4 μg/ml, read-out: MIC E. faecium CT-26): 0.06 µg/mL (≈ 0.143 µM) | MIC ([11]; CT26, Table 4, broth dilution MIC according to CLSI standards (NAEJA), read-out: MIC E. faecium CT-26): 0.015 µg/mL (≈ 0.0357 µM) | MIC ([12]; ATCC 25921 / ATCC 25922, Table 2, broth dilution MIC in ug/ml, read-out: MIC E. coli ATCC 25921): 1 µg/mL (≈ 2.38 µM) | MIC ([12]; ATCC25922, Table 1, range 64 down to 0.12 μg/ml, read-out: MIC E. coli ATCC 25922): 1 µg/mL (≈ 2.38 µM) | MIC ([12]; ATCC25922, Table 4, broth dilution MIC according to CLSI standards (NAEJA), read-out: MIC E. coli ATCC 25922): 0.5 µg/mL (≈ 1.19 µM) | MIC ([13]; ATCC13883, Table 1, range 64 down to 0.12 μg/ml, read-out: MIC K. pneumoniae ATCC 13883): 1 µg/mL (≈ 2.38 µM) | MIC ([13]; ATCC13883, Table 2, broth dilution MIC in ug/ml, read-out: MIC K pneumonia ATCC 13883): 1 µg/mL (≈ 2.38 µM) | MIC ([13]; ATCC13883, Table 4, broth dilution MIC according to CLSI standards (NAEJA), read-out: MIC K. pneumoniae ATCC 13883): 0.5 µg/mL (≈ 1.19 µM) | MIC ([14]; ATCC 9026 / ATCC 9027, Table 2, broth dilution MIC in ug/ml, read-out: MIC P aeruginosa ATCC 9026): 1 µg/mL (≈ 2.38 µM) | MIC ([14]; ATCC9027, Table 1, range 64 down to 0.12 μg/ml, read-out: MIC P. aeruginosa ATCC 9027): 1 µg/mL (≈ 2.38 µM) | MIC ([14]; ATCC9027, Table 4, broth dilution MIC according to CLSI standards (NAEJA), read-out: MIC P. aeruginosa ATCC 9027): 0.5 µg/mL (≈ 1.19 µM) | Day by which all the mice died ([15]; 10 mg/kg): ≤ 3 days | Percent Survival Day 1 ([15]; 10 mg/kg BID IP): 100% | Percent Survival Day 2 ([15]; 10 mg/kg BID IP): 100% | Percent Survival Day 3 ([15]; 10 mg/kg BID IP): 0% | Percent Survival Day 4 ([15]; 10 mg/kg BID IP): 0% | Percent Survival Day 5 ([15]; 10 mg/kg BID IP): 0% | Percent Survival Day 6 ([15]; 10 mg/kg BID IP): 0% | Percent Survival Day 7 ([15]; 10 mg/kg BID IP): 0% | Day by which all the mice died ([15]; 20 mg/kg): ≤ 4 days | Percent Survival Day 1 ([15]; 20 mg/kg BID IP): 100% | Percent Survival Day 2 ([15]; 20 mg/kg BID IP): 100% | Percent Survival Day 3 ([15]; 20 mg/kg BID IP): 80% | Percent Survival Day 4 ([15]; 20 mg/kg BID IP): 0% | Percent Survival Day 5 ([15]; 20 mg/kg BID IP): 0% | Percent Survival Day 6 ([15]; 20 mg/kg BID IP): 0% | Percent Survival Day 7 ([15]; 20 mg/kg BID IP): 0% | Day by which all the mice died ([16]; 10 mg/kg): ≤ 3 days | Percent Survival Day 1 ([16]; 10 mg/kg BID IP): 100% | Percent Survival Day 2 ([16]; 10 mg/kg BID IP): 60% | Percent Survival Day 3 ([16]; 10 mg/kg BID IP): 0% | Percent Survival Day 4 ([16]; 10 mg/kg BID IP): 0% | Percent Survival Day 5 ([16]; 10 mg/kg BID IP): 0% | Percent Survival Day 6 ([16]; 10 mg/kg BID IP): 0% | Percent Survival Day 7 ([16]; 10 mg/kg BID IP): 0% | Day by which all the mice died ([16]; 20 mg/kg): ≤ 4 days | Percent Survival Day 1 ([16]; 20 mg/kg BID IP): 100% | Percent Survival Day 2 ([16]; 20 mg/kg BID IP): 80% | Percent Survival Day 3 ([16]; 20 mg/kg BID IP): 60% | Percent Survival Day 4 ([16]; 20 mg/kg BID IP): 0% | Percent Survival Day 5 ([16]; 20 mg/kg BID IP): 0% | Percent Survival Day 6 ([16]; 20 mg/kg BID IP): 0% | Percent Survival Day 7 ([16]; 20 mg/kg BID IP): 0% | Viable bacterial titer over time (time kill curve) [17]: bactericidal | Mean bacterial tissue burden (log10/thigh) ([18]; 10 mg/kg BID IP): 6.7143 log10/thigh | Log reduction ([18]; 10 mg/kg BID IP, listed as 356313, 10 mg/kg): 2.40 Log and 2.3984 Log | Mean bacterial tissue burden (log10/thigh) ([18]; 20 mg/kg BID IP): 5.6260 log10/thigh | Log reduction ([18]; 20 mg/kg BID IP, listed as 356313, 20 mg/kg): 3.49 Log and 3.4867 Log

— patent US20150291565A1, “INDOLE COMPOUNDS AND THEIR USE AS ANTIMICROBIALS” (Memorial Sloan-Kettering Cancer Center, priority 2012, published 2015)
